Source: ChEMBL document CHEMBL4196233, “Ribosome-Templated Azide-Alkyne Cycloadditions Using Resistant Bacteria as Reaction Vessels: in Cellulo Click Chemistry” (2018)
Values after ≈ are worked out from the molar mass of the structure shown.

Tested on: Staphylococcus aureus
Assay: Antimicrobial activity against Staphylococcus aureus UCN18 measured after 18 hrs
Format: functional
Details: UCN18, 18 h

First: CC[C@H]1OC(=O)[C@@](C)(F)C(=O)[C@H](C)[C@@H](O[C@@H]2O[C@H](C)C[C@H](N(C)C)[C@H]2O)[C@](C)(OC)C[C@@H](C)C(=O)[C@H](C)[C@H]2N(CCCCN=[N+]=[N-])C(=O)O[C@]12C
Second: CC[C@H]1OC(=O)[C@@](C)(F)C(=O)[C@H](C)[C@@H](O[C@@H]2O[C@H](C)C[C@H](N(C)C)[C@H]2O)[C@](C)(OC)C[C@@H](C)C(=O)[C@H](C)[C@H]2N(CCCCn3cc(C(O)(CC)CC)nn3)C(=O)O[C@]12C
The MIC of the first is 2-fold higher: 256 µg/mL (≈ 352 µM) for the first, 128 µg/mL (≈ 152 µM) for the second.

Compared with `CC[C@H]1OC(=O)[C@@](C)(F)C(=O)[C@H](C)[C@@H](O[C@@H]2O[C@H](C)C[C@H](N(C)C)[C@H]2O)[C@](C)(OC)C[C@@H](C)C(=O)[C@H](C)[C@H]2N(CCCCn3cc(CN4CCNCC4)nn3)C(=O)O[C@]12C`, `CC[C@H]1OC(=O)[C@@](C)(F)C(=O)[C@H](C)[C@@H](O[C@@H]2O[C@H](C)C[C@H](N(C)C)[C@H]2O)[C@](C)(OC)C[C@@H](C)C(=O)[C@H](C)[C@H]2N(CCCCn3cc(COc4ccccc4)nn3)C(=O)O[C@]12C` is 32-fold lower in MIC: 128 µg/mL (≈ 150 µM) for the first, 4 µg/mL (≈ 4.65 µM) for the second.

Compared with `CC[C@H]1OC(=O)[C@@](C)(F)C(=O)[C@H](C)[C@@H](O[C@@H]2O[C@H](C)C[C@H](N(C)C)[C@H]2O)[C@](C)(OC)C[C@@H](C)C(=O)[C@H](C)[C@H]2N(CCCCn3cc(-c4cccc(C(F)(F)F)c4)nn3)C(=O)O[C@]12C`, `CC[C@H]1OC(=O)[C@@](C)(F)C(=O)[C@H](C)[C@@H](O[C@@H]2O[C@H](C)C[C@H](N(C)C)[C@H]2O)[C@](C)(OC)C[C@@H](C)C(=O)[C@H](C)[C@H]2N(CCCCn3cc(-c4cccc(N)c4)nn3)C(=O)O[C@]12C` [SOLITHROMYCIN] is 16-fold lower in MIC: 32 µg/mL (≈ 35.6 µM) for the first, 2 µg/mL (≈ 2.37 µM) for the second.

`CC[C@H]1OC(=O)[C@@](C)(F)C(=O)[C@H](C)[C@@H](O[C@@H]2O[C@H](C)C[C@H](N(C)C)[C@H]2O)[C@](C)(OC)C[C@@H](C)C(=O)[C@H](C)[C@H]2N(CCCCn3cc(-c4ccccc4F)nn3)C(=O)O[C@]12C` and `CC[C@H]1OC(=O)[C@@](C)(F)C(=O)[C@H](C)[C@@H](O[C@@H]2O[C@H](C)C[C@H](N(C)C)[C@H]2O)[C@](C)(OC)C[C@@H](C)C(=O)[C@H](C)[C@H]2N(CCCCn3cc(-c4cccc(O)c4)nn3)C(=O)O[C@]12C` are the same in MIC: 8 µg/mL (≈ 9.43 µM) for the first, 8 µg/mL (≈ 9.46 µM) for the second.

`CC[C@H]1OC(=O)[C@@](C)(F)C(=O)[C@H](C)[C@@H](O[C@@H]2O[C@H](C)C[C@H](N(C)C)[C@H]2O)[C@](C)(OC)C[C@@H](C)C(=O)[C@H](C)[C@H]2N(CCCCn3cc(-c4ccc(OC)cc4)nn3)C(=O)O[C@]12C` and `CC[C@H]1OC(=O)[C@@](C)(F)C(=O)[C@H](C)[C@@H](O[C@@H]2O[C@H](C)C[C@H](N(C)C)[C@H]2O)[C@](C)(OC)C[C@@H](C)C(=O)[C@H](C)[C@H]2N(CCCCn3cc(-c4ccc(N(C)C)cc4)nn3)C(=O)O[C@]12C` are the same in MIC: 32 µg/mL (≈ 37.2 µM) for the first, 32 µg/mL (≈ 36.7 µM) for the second.

`CC[C@H]1OC(=O)[C@@](C)(F)C(=O)[C@H](C)[C@@H](O[C@@H]2O[C@H](C)C[C@H](N(C)C)[C@H]2O)[C@](C)(OC)C[C@@H](C)C(=O)[C@H](C)[C@H]2N(CCCCn3cc(COc4ccc(OC)cc4)nn3)C(=O)O[C@]12C` and `CC[C@H]1OC(=O)[C@@](C)(F)C(=O)[C@H](C)[C@@H](O[C@@H]2O[C@H](C)C[C@H](N(C)C)[C@H]2O)[C@](C)(OC)C[C@@H](C)C(=O)[C@H](C)[C@H]2N(CCCCn3cc(-c4cccnc4)nn3)C(=O)O[C@]12C` are the same in MIC: 16 µg/mL (≈ 18 µM) for the first, 16 µg/mL (≈ 19.3 µM) for the second.
